Assay [1] deals with HeLaS3 cells. The assay is described as follows: Human uterine cervix carcinoma (HeLaS3) growth inhibition test, neutral red staining. The class given is cell-based. The settings on record: HeLa S3, 72 hours culture with sample, absorbance at 550 nm. The method, then:
Human uterine cervix carcinoma (HeLaS3) growth inhibition test;
Each 0.1 ml of HeLaS3 cells which had been prepared to 3 x 10^4/ml using a medium (referred to as Medium A hereinafter) consisted of MEM medium, 2 mM glutamine and 10% bovine fetal serum was distributed in each well of 96 well-microtiter plate. The plate was cultured at 37 °C for 20 hours in a CO2 gas incubator, each 0.05 ml of samples (test compounds) which had been appropriately diluted with Medium A was added thereto and the mixture was cultured at 37 °C for 72 hours in a CO2 gas incubator. Supernatant was removed, each 0.1 ml of Medium A containing 0.02% neutral red was added to the residue, the mixture was cultured at 37 °C for 1 hour in a CO2 gas incubator and the cells were stained. Supernatant was removed and the residue was washed once with saline. Then, the pigment was extracted with 0.001N hydrochloric acid/30% ethanol and the absorbance at 550 nm was measured with a microplatereader.

In assay [2] the test system is MCF-7 cells. The assay is described as follows: Human mammary cancer (MCF-7) growth inhibition test, neutral red staining. In kind it is cell-based. The settings on record: MCF7, medium with 10^-8M estradiol, 72 hours culture with sample. As for the experimental part: Human mammary cancer (MCF-7) growth inhibition test;
Each 0.1 ml of MCF-7 cells which had been prepared to 5 x 10^4/ml using a medium (referred to as Medium B hereinafter) prepared by adding 10% bovine fetal serum, 10^-8M estradiol (manufactured by Sigma), 100 units/ml penicillin and 100 µg/ml streptomycin to medium RPMI1640 was distributed in each well of 96 well-microtiter plate. The plate was cultured at 37 °C for 20 hours in a CO2 gas incubator, each 0.05 ml of samples (test compounds) which had been appropriately diluted with Medium B was added thereto and the mixture was cultured at 37 °C for 72 hours in a CO2 gas incubator. Supernatant was removed, each 0.1 ml of Medium B containing 0.02% neutral red was added to the residue, the mixture was cultured at 37 °C for 1 hour in a CO2 gas incubator and the cells were stained. IC50 was calculated according to the same manner as that in Test 2.

Drawing on patent EP0556720B1, “5-Aminoflavone derivatives” (KYOWA HAKKO KOGYO CO., LTD., priority 1992, dated 1993), this text covers IC50 for 33 molecules.

Broadly, the IC50 is the concentration needed to halve the response being measured. A high value points to lower potency.

Where a name gives a salt, the structure may show the parent alone.

For `Nc1ccc(-c2cc(=O)c3c(N)ccc(Cl)c3o2)cc1` [Compound 2, 5-Amino-2-(4-aminophenyl)-8-chloro-4H-1-benzopyran-4-one], the half-inhibitory concentration (IC50) in assay [1] stood at 3.2 µM; in assay [2] it was 0.37 µM.
Consider `Nc1ccc(-c2cc(=O)c3c(N)c(Cl)cc(Cl)c3o2)cc1` [Compound 3, 5-Amino-2-(4-aminophenyl)-6,8-dichloro-4H-1-benzopyran-4-one], for which the half-maximal inhibitory concentration (IC50) amounted to 33 µM in assay [1] and 22 µM in assay [2].
`Nc1ccc(-c2cc(=O)c3c(N)ccc(Br)c3o2)cc1` [Compound 5, 5-Amino-2-(4-aminophenyl)-8-bromo-4H-1-benzopyran-4-one] came in with an IC50 in assay [1] of 6.1 µM. This counts as single-digit micromolar.
In assay [2], `Nc1ccc(-c2cc(=O)c3c(N)c(Br)cc(Br)c3o2)cc1` [Compound 6, 5-Amino-2-(4-aminophenyl)-6,8-dibromo-4H-1-benzopyran-4-one] showed an IC50 of 27 µM.
Same read-out and setting: the value for `Nc1ccc(-c2cc(=O)c3c(N)c(F)ccc3o2)cc1` [Compound 8, 5-Amino-2-(4-aminophenyl)-6-fluoro-4H-1-benzopyran-4-one] was 0.14 µM.
For the molecule `Nc1ccc(-c2cc(=O)c3c(N)ccc(F)c3o2)cc1` [Compound 10, 5-Amino-2-(4-aminophenyl)-8-fluoro-4H-1-benzopyran-4-one], the concentration for half-maximal inhibition (IC50) in assay [1] amounted to 21 µM; in assay [2], 0.25 µM.
Consider `NCCCNc1ccc(-c2cc(=O)c3c(N)ccc(F)c3o2)cc1` [Compound 20, 5-Amino-2-[4-[(3-aminopropyl)amino]phenyl]-8-fluoro-4H-1-benzopyran-4-one], for which the half-maximal inhibitory concentration (IC50) in assay [1] turned out to be 9.3 µM; in assay [2], 0.094 µM.
With `NCCCNc1ccc(-c2cc(=O)c3c(N)c(F)cc(F)c3o2)cc1F` [Compound 30, 5-Amino-2-[4-(3-aminopropylamino)-3-fluorophenyl]-6,8-difluoro-4H-1-benzopyran-4-one], the IC50 was determined as 14 µM in assay [1] and 0.039 µM in assay [2].
Turning to `Nc1c(Cl)cc(-c2cc(=O)c3c(N)c(F)cc(F)c3o2)cc1Cl` [Compound 35, 5-Amino-2-(4-amino-3,5-dichlorophenyl)-6,8-difluoro-4H-1-benzopyran-4-one], 0.17 µM corresponded to half-maximal inhibition in assay [2] (IC50).
As for `Nc1c(Br)cc(-c2cc(=O)c3c(N)c(F)cc(F)c3o2)cc1Br` [Compound 36, 5-Amino-2-(4-amino-3,5-dibromophenyl)-6,8-difluoro-4H-1-benzopyran-4-one], the IC50 in assay [2] was found to be 0.61 µM.
The molecule `CN(C)c1ccc(-c2cc(=O)c3c(N)c(F)cc(F)c3o2)cc1F` [Compound 38, 5-Amino-6,8-difluoro-2-[4-(N,N-dimethylamino)-3-fluorophenyl]-4H-1-benzopyran-4-one] had an IC50 in assay [1] of 12 µM.
In turn, `CN(C)CCNc1ccc(-c2cc(=O)c3c(N)c(F)cc(F)c3o2)cc1F` [Compound 40, 5-Amino-2-[4-[2-(N',N'-dimethylamino)ethylamino]-3-fluorophenyl]-6,8-difluoro-4H-1-benzopyran-4-one] returned a half-maximal inhibitory concentration (IC50) in assay [2] of 0.23 µM.
On to `Nc1c(F)cc(F)c2oc(-c3ccc(NCCN4CCCC4)c(F)c3)cc(=O)c12` [Compound 41, 5-Amino-6,8-difluoro-2-[3-fluoro-4-[2-(pyrrolidin-1-yl)ethylamino]phenyl]-4H-1-benzopyran-4-one], for which the IC50 in assay [1] is 5 µM.
With `Nc1c(F)cc(F)c2oc(-c3ccc(NCCN4CCOCC4)c(F)c3)cc(=O)c12` [Compound 42, 5-Amino-6,8-difluoro-2-[3-fluoro-4-(2-morpholinoethylamino)phenyl]-4H-1-benzopyran-4-one], 6.1 µM corresponded to half-maximal inhibition in assay [2] (IC50).
In assay [2], `CCOC(=O)CNc1ccc(-c2cc(=O)c3c(N)c(F)cc(F)c3o2)cc1F` [Compound 44, 5-Amino-6,8-difluoro-2-(4-ethyoxycarbonylmethylamino-3-fluorophenyl)-4H-1-benzopyran-4-one] displayed an IC50 of 0.36 µM.
In assay [2], `COCCCNc1ccc(-c2cc(=O)c3c(N)c(F)cc(F)c3o2)cc1F` [Compound 46, 5-Amino-6,8-difluoro-2-[3-fluoro-4-(3-methoxypropylamino)phenyl]-4H-1-benzopyran-4-one] came in with a concentration for half-maximal inhibition (IC50) of 0.11 µM.
For `Nc1c(F)cc(F)c2oc(-c3ccc(NCCCCCCn4ccnc4)c(F)c3)cc(=O)c12` [Compound 52, 5-Amino-6,8-difluoro-2-[3-fluoro-4-[6-(imidazol-1-yl)hexylamino]phenyl]-4H-1-benzopyran-4-one], the half-maximal inhibitory concentration (IC50) amounted to 4.4 µM in assay [1] and 2 µM in assay [2].
Molecule `Nc1c(F)cc(F)c2oc(-c3ccc(NCCCCCCN4CCOCC4)c(F)c3)cc(=O)c12` [Compound 55, 5-Amino-6,8-difluoro-2-[3-fluoro-4-(6-morpholinohexylamino)phenyl]-4H-1-benzopyran-4-one] registered a half-maximal inhibitory concentration (IC50) in assay [1] of 11 µM.
Consider `CCOC(=O)CCCCCNc1ccc(-c2cc(=O)c3c(N)c(F)cc(F)c3o2)cc1F` [Compound 56, 5-Amino-6,8-difluoro-2-[4-(5-ethoxycarbonylpentylamino)-3-fluorophenyl]-4H-1-benzopyran-4-one], for which, in assay [2], half-maximal inhibition (IC50) was put at 0.91 µM.
Take `Nc1c(F)cc(F)c2oc(-c3ccc(NCCCCCC(=O)O)c(F)c3)cc(=O)c12` [Compound 57, Sodium salt of 5-amino-2-[4-(5-carboxypentylamino)-3-fluorophenyl]-6,8-difluoro-4H-1-benzopyran-4-one]: in assay [2], the IC50 was determined as 0.73 µM.
On the same count and under the same terms, the figure for `CCCCCCNc1c(F)cc(F)c2oc(-c3ccc(N(C)C)c(F)c3)cc(=O)c12` [Compound 58, 6,8-Difluoro-2-[4-(N,N-dimethyl)amino-3-fluorophenyl]-5-hexylamino-4H-1-benzopyran-4-one] is 0.34 µM.
On the same count and under the same terms, the figure for `CN(C)c1ccc(-c2cc(=O)c3c(NCCCCCCO)c(F)cc(F)c3o2)cc1F` [Compound 60, 6,8-Difluoro-2-[4-(N,N-dimethyl)amino-3-fluorophenyl]-5-(6-hydroxyhexylamino)-4H-l-benzopyran-4-one] is 0.34 µM; for `COCCCCCCNc1c(F)cc(F)c2oc(-c3ccc(N(C)C)c(F)c3)cc(=O)c12` [Compound 61, 6,8-Difluoro-2-[4-(N,N-dimethyl)amino-3-fluorophenyl]-5-(6-methoxyhexylamino)-4H-1-benzopyran-4-one] it is 0.63 µM.
On to `CN(C)CCCCCCNc1c(F)cc(F)c2oc(-c3ccc(N(C)C)c(F)c3)cc(=O)c12` [Compound 62, 6,8-Difluoro-2-[4-(N,N-dimethyl)amino-3-fluorophenyl]-5-[6-(N',N'-dimethylamino)hexylamino]-4H-1-benzopyran-4-one], for which inhibition in assay [1] was half-maximal at 7.1 µM (IC50).
`CN(C)c1ccc(-c2cc(=O)c3c(NCCCCCCN4CCCC4)c(F)cc(F)c3o2)cc1F` [Compound 63, 6,8-Difluoro-2-[4-(N,N-dimethyl)amino-3-fluorophenyl]-5-[6-(pyrrolidin-1-yl)hexylamino]-4H-1-benzopyran-4-one]: it took 7 µM to reach half-maximal inhibition in assay [1] (IC50).
The molecule `CN(C)c1ccc(-c2cc(=O)c3c(NCCCCCCn4ccnc4)c(F)cc(F)c3o2)cc1F` [Compound 64, 6,8-Difluoro-2-[4-(N,N-dimethyl)amino-3-fluorophenyl]-5-[6-(imidazol-1-yl)hexylamino]-4H-1-benzopyran-4-one] registered a concentration for half-maximal inhibition (IC50) in assay [1] of 3 µM.
The same measure, in the same setting: the figure for `CN(C)c1ccc(-c2cc(=O)c3c(NCCCCCCN)c(F)cc(F)c3o2)cc1F` [Compound 65, 5-(6-Aminohexylamino)-6,8-difluoro-2-[4-(N,N-dimethyl)amino-3-fluorophenyl]-4H-1-benzopyran-4-one] is 7 µM; for `CCCCCCNc1c(F)cc(F)c2oc(-c3ccc(N)c(F)c3)cc(=O)c12` [Compound 67, 2-(4-Amino-3-fluorophenyl)-6,8-difluoro-5-hexylamino-4H-1-benzopyran-4-one] it is 9.4 µM.
The molecule `CC(Cl)CCCCNc1c(F)cc(F)c2oc(-c3ccc(N)c(F)c3)cc(=O)c12` (stereo not drawn) [Compound 69, 2-(4-Amino-3-fluorophenyl)-5-(5-chlorohexylamino)-6,8-difluoro-4H-1-benzopyran-4-one] showed an IC50 in assay [2] of 6 µM.
`CC(C)CCCNc1c(F)cc(F)c2oc(-c3ccc(N)c(F)c3)cc(=O)c12` [Compound 71, 2-(4-Amino-3-fluorophenyl)-6,8-difluoro-5-(4-methylpentylamino)-4H-1-benzopyran-4-one]: the half-inhibitory concentration (IC50) in assay [1] came out at 12 µM.
Same read-out and setting: the figure for `CCCCCCNc1c(F)cc(F)c2oc(-c3ccc(NCC(=O)O)c(F)c3)cc(=O)c12` [Compound 75, 2-(4-Carboxymethylamino-3-fluorophenyl)-6,8-difluoro-5-hexylamino-4H-1-benzopyran-4-one] is 16 µM.
As for `C=CCCCCNc1c(F)cc(F)c2oc(-c3ccc(NC)c(F)c3)cc(=O)c12` [Compound 77, 6,8-Difluoro-2-(3-fluoro-4-methylaminophenyl)-5-(5-hexenylamino)-4H-1-benzopyran-4-one], the 50% inhibitory concentration (IC50) in assay [1] was 11 µM. The IC50 values of the last two molecules are within 1.5-fold of each other.
Still for that read-out and setting: the value for `CCCCCNc1c(F)cc(F)c2oc(-c3ccc(NCCCN)c(F)c3)cc(=O)c12` [Compound 79, 2-[4-(3-Aminopropylamino)-3-fluorophenyl]-6,8-difluoro-5-pentylamino-4H-1-benzopyran-4-one] was 7.5 µM.
